{"source": "ChEMBL document CHEMBL1137949", "about": "“Mechanism of action of pyridazine analogues on protein tyrosine phosphatase 1B (PTP1B)” (Bioorg Med Chem Lett, 2004)", "key": {"[1]": {"test": "Enzymatic activity of protein tyrosine phosphatase 1B in the presence (10 uM) was measured using para-nitrophenylphosphate (pNPP) as the substrate in the presence of TCEP (1 mM); inhibited"}, "[2]": {"test": "Enzymatic activity of protein tyrosine phosphatase 1B in the presence (10 uM) was measured using para-nitrophenylphosphate (pNPP) as the substrate in the presence of TCEP (1 mM) and catalase (25 ug/mL); activity not restored"}, "[3]": {"test": "Enzymatic activity of protein tyrosine phosphatase 1B in the presence (10 uM) was measured using para-nitrophenylphosphate (pNPP) as the substrate; active"}, "[4]": {"test": "Inhibitory activity against Protein-tyrosine phosphatase activity; active"}, "[5]": {"test": "Enzymatic activity of protein tyrosine phosphatase 1B in the presence (10 uM) was measured using para-nitrophenylphosphate (pNPP) as the substrate in the presence of […] (1 mM) and catalase (25 ug/mL); abolished the inhibitory effect"}, "[6]": {"test": "Enzymatic activity of protein tyrosine phosphatase 1B in the presence (10 uM) was measured using para-nitrophenylphosphate (pNPP) as the substrate in the presence of […] (1 mM); inhibited"}}, "note": "The source made the active and inactive calls. No cut-off for these calls is given here.", "data": [{"compound": "CC1(C)C=C2C(=NN(c3ccccc3)C(N)=C2C#N)CO1.O=C(O)CCP(CCC(=O)O)CCC(=O)O", "values": [{"measurement": "Activity", "setting": "[1]", "result": "activity not restored"}, {"measurement": "Activity", "setting": "[2]", "result": "activity not restored"}]}, {"compound": "CC1(C)C=C2C(=NN(c3ccccc3)C(N)=C2C#N)CO1", "values": [{"measurement": "Activity", "setting": "[3]", "result": "Active"}]}, {"compound": "OO", "values": [{"measurement": "Activity", "setting": "[4]", "result": "Active"}]}, {"compound": "O=C(O)CCP(CCC(=O)O)CCC(=O)O", "values": [{"measurement": "Activity", "setting": "[3]", "result": "Active"}]}, {"compound": "CC1(C)C=C2C(=NN(c3ccccc3)C(N)=C2C#N)CO1.OC(CS)C(O)CS", "values": [{"measurement": "Activity", "setting": "[5]", "result": "abolished the inhibitory effect"}, {"measurement": "Activity", "setting": "[6]", "result": "abolished the inhibitory effect"}]}, {"compound": "OC(CS)C(O)CS", "note": "(centres undefined)", "values": [{"measurement": "Activity", "setting": "[3]", "result": "Active"}]}, {"compound": "O=C1CC(=O)N(c2ccccc2)O1", "values": [{"measurement": "Activity", "setting": "[4]", "result": "Active"}]}]}
